What was measured:
Assay in all cases: relative viability (nuclei count vs DMSO), 5 days (fraction); higher = more cells survive
[1] = compound: CC(C)C[C@@H](C(=O)N[C@H](C(=O)OC1CCCC1)c1ccccc1)[C@H](O)C(=O)NO [Tosedostat] + Cc1cc(Nc2cc(N3CCN(C)CC3)nc(Sc3ccc(NC(=O)C4CC4)cc3)n2)n[nH]1 [Tozasertib] (partner 0.1 µM)
Outline: (§1)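 Dosing by pin tool came one day after lung cancer cell lines were seeded in 1536-well plates, using either one drug or a fixed anchor-drug dose plus five library-drug doses (not always all listed) in √10 steps. After 5 days, nuclei were counted on 4× images. Relative viability is treated-well nuclei count divided by vehicle-well nuclei count, and values are medians of duplicate plates.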

[2] = compound: CC1=NN=C(O1)C2=NN=C(C=C2)N3CCC(CC3)OC4=C(C=CC(=C4)F)Cl + COc1cc2c(Oc3ccc(NC(=O)C4(C(=O)Nc5ccc(F)cc5)CC4)cc3F)ccnc2cc1OCCCN1CCOCC1 [Foretinib] (partner 0.25 µM)
Outline: as §1

[3] = compound: CC(C)C[C@@H](C(=O)N[C@H](C(=O)OC1CCCC1)c1ccccc1)[C@H](O)C(=O)NO [Tosedostat] + C[C@]1(O)C[C@@H](c2nc(-c3ccc4ccc(-c5ccccc5)nc4c3)c3c(N)nccn32)C1 [Linsitinib] (partner 1 µM)
Outline: as §1

[4] = compound: CC1=NN=C(O1)C2=NN=C(C=C2)N3CCC(CC3)OC4=C(C=CC(=C4)F)Cl + Cc1nc(NC(=O)N2CCC[C@H]2C(N)=O)sc1-c1ccnc(C(C)(C)C(F)(F)F)c1 [Alpelisib] (partner 2 µM)
Outline: as §1

UMC-11
relative viability ([1]; first compound 0.02 µM): 0.214
relative viability ([1]; first compound 0.06325 µM): 0.195
relative viability ([1]; first compound 0.2 µM): 0.206
relative viability ([1]; first compound 0.6325 µM): 0.197
relative viability ([1]; first compound 2 µM): 0.194
relative viability ([2]; first compound 0.253 µM): 0.539
relative viability ([2]; first compound 0.8 µM): 0.57
relative viability ([2]; first compound 2.53 µM): 0.543
relative viability ([2]; first compound 8 µM): 0.501
relative viability ([3]; first compound 0.02 µM): 0.995
relative viability ([3]; first compound 0.06325 µM): 1.08
relative viability ([3]; first compound 0.2 µM): 0.951
relative viability ([3]; first compound 0.6325 µM): 0.898
relative viability ([3]; first compound 2 µM): 0.976
relative viability ([4]; first compound 0.253 µM): 0.744
relative viability ([4]; first compound 0.8 µM): 0.679
relative viability ([4]; first compound 2.53 µM): 0.687
relative viability ([4]; first compound 8 µM): 0.667

Reference: the supplement of paper PMC10307832
